The source of these data is patent US12084434B2 (Scorpion Therapeutics, Inc., priority 2021, dated 2024).

pIC50, pKd: −log10 of the molar value. Where two headings read alike, the source gives them in different places. Bounds are passed on as bounds.

Assay [1] deals with T1, PI3Kα H1047R protein (p110-α H1047R complexed with truncated p85-α) (Homo sapiens, UniProt P42336, H1047R).
T1 construct: The protein contained a full-length p110-α subunit harboring the H1047R mutation
The assay can be described thus: Surface Plasmon Resonance (SPR) binding, wortmannin-blocked protein. The settings on record: Biacore 8K, ATP site blocked with 1 μM wortmannin, 25° C. As to the method: Surface Plasmon Resonance (SPR)
SPR experiments were performed on a Biacore 8K instrument. A biotinylated recombinant PI3Kα H1047R protein was used in this study. The protein contained a full-length p110-α subunit harboring the H1047R mutation with an N-terminal AviTag, complexed with a truncated p85-α subunit (amino acid residues 322-694). The protein was first incubated with 1 μM wortmannin for 30 min at RT to covalently block the ATP binding site, then immobilized onto a streptavidin sensor chip by flowing the protein through the sensor chip at typically 20 μg/mL concentration and 2 μL/min flow rate for 1200 seconds. Compound binding affinities were measured in the multi-cycle kinetics mode, at 90 μL/min flow rate with 90 seconds association time and 240 seconds dissociation time. The running buffer contained 50 mM Tris, pH 7.5, 150 mM NaCl, 0.01% Brij35, 1 mM DTT, 1 mM MgCl2, 0.05% Tween-20 and 2% DMSO. Temperature was maintained at 25° C. during experiments.
For orientation: In SPR one partner is held on a chip, and binding of the other changes the refractive index at the surface.

The test system of assay [2] is T47D pAKT (S473), PI3Kα H1047R mutation present. The experiment in a line: HTRF pAKT-T47D.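 On all read-outs here: assay medium was RPMI with 10% FBS and 0.2 units/ml bovine insulin, without phenol red.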 The settings on record: for IC50: Homo sapiens, T47D, 1 h, read-out: T47D pAKT IC50 (nM), T47D.1 cells, pAKT (S473) HTRF, 1 hour. For orientation: In TR-FRET formats the signal depends on donor and acceptor labels being close together.
Description: Homogenous Time-Resolved Fluorescence (HTRF)—pAKT-T47D
Compounds were assayed using homogeneous time-resolved fluorescence (HTRF).
Gibco RPMI 1640 Medium, no phenol red; Gibco RPMI 1640 Medium; Gibco Trypsin-EDTA (0.5%), no phenol red; Gibco DPBS; Trypan blue solution 0.4% (Corning); Avantor Seradigm Premium Grade Fetal Bovine Serum (FBS); Greiner 784080-384 well TC treated white plates; pAKT (Ser473) HTRF; Gibco Insulin, human recombinant, zinc solution; Gibco Recovery Cell Culture Freezing Medium; Countess II FL Automated Cell Counter (ThermoFisher); Countess II Slides (ThermoFisher); Microscope; and PHERAstar FSX Microplate Reader (BMG LABTECH, Inc.).
The scinamic cell line ID was T47D.1, the HTRF detection was pAKT (S473), a PI3Kα H1047R mutation was present, the seeding density was 5000, the timepoint was 1 hour, and the medium used was RPMI+10% FBS (no phenol red)+0.2 units/ml bovine insulin.
• The cell density was not permitted to reach 100% confluence. The cells were split 1:5 when they reached ˜80% confluence. • Cells were split twice a week (Mon and Fri). • Cells over passage 18 were not used (˜2 months of maintenance). • Antibiotics were not used for tissue culture maintenance or assays. […] Protocol Day1
The procedure was as follows: • 1. Prepared ARP: • a. Stamped 12.5 nL from 10 μmM source plate to destination plate using Echo. Sealed plate immediately and froze at −20° C. if it was not used on the same day. • b. If a frozen ARP was used, the plate was thawed and spun at 1000 rpm×1 min. • 2. Preparation of cells (adherent): • a. Aspirated media from cells. Washed cells with sterile 1XPBS. Aspirated PBS and added appropriate amount of Trypsin. • b. Once cells were fully trypsinized, added appropriate media to resuspend cells. Transferred cells to a 15 mL or 50 mL conical tube. • c. Counted cells on the Countess II Cell Counter. • 3. Plating of cells: • a. Prepared cells at appropriate plating density. Dispensed 12 μL of diluted cells per well of a Greiner 784080-384 well TC treated white plate using a Multidrop Combi to columns 1-23. Added 12 uL of appropriate phenol free media only to column 24. • b. Placed plates in 37° C. tissue culture incubator for appropriate treatment time (refer to “Assay” table). • 4. Prepared HTRF Lysis Buffer • a. Calculate the amount of HTRF lysis buffer master mix needed to perform the desired experiments plus any extra dead volume required for dispensing (4 μL required per well). […] Add 4 uL Lysis buffer master mix to all wells with sample or DMSO. Centrifuge the plates for 1 minute at 1000 rpm. • c. Incubate at room temperature for 30 minutes. • 5. Prepared HTRF Antibody • a.

T1 sequence (P42336 whole entry H1047R, the tested form may be a part): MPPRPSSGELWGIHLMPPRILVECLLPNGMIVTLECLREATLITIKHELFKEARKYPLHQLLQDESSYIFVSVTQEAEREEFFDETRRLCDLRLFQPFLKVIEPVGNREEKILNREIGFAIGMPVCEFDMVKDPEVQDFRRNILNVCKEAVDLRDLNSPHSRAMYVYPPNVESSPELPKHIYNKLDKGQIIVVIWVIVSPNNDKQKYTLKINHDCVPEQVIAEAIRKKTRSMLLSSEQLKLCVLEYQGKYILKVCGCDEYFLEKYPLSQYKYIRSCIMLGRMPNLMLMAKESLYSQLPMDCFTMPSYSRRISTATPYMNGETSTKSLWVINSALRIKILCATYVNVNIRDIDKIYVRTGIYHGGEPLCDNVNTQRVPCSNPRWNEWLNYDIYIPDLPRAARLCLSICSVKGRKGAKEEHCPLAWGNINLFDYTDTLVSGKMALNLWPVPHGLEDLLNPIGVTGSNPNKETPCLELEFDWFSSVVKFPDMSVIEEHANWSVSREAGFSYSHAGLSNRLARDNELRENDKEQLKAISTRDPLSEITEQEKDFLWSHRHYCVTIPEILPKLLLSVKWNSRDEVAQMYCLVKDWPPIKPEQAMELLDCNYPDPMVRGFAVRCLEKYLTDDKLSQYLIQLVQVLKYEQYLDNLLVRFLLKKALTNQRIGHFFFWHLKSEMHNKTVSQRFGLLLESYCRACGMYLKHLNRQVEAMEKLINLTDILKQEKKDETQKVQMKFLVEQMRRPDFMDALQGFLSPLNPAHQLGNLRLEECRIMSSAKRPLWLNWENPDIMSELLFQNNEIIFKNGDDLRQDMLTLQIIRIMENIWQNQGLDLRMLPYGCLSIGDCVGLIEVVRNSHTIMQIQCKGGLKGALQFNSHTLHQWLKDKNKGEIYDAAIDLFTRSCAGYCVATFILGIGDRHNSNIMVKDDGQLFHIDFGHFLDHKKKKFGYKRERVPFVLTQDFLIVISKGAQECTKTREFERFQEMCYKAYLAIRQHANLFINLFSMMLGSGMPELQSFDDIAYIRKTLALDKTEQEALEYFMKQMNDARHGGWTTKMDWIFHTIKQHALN
T1 sequence (P27986 322-694 partner limits assumed): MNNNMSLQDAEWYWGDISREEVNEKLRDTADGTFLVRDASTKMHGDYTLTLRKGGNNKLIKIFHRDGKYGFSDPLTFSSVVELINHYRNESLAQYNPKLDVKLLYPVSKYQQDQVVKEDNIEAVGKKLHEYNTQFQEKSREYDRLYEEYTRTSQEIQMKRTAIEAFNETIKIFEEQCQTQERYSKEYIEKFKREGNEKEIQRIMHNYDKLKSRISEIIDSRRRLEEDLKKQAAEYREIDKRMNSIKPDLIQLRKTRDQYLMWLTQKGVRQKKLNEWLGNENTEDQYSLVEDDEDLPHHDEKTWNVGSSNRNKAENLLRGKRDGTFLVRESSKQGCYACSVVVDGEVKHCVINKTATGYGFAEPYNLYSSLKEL

A word on the pKd: it is the negative decadic logarithm of the Kd, by convention in mol/L. As usually defined, the IC50 is the concentration that gives 50% inhibition. On to `Cc1c([C@@H](NC(=O)Nc2ccc(N)nc2)C(C)C)oc2ccc(F)cc12` [Compound 38, (S)-1-(6-aminopyridin-3-yl)-3-(1-(5-fluoro-3-methylbenzofuran-2-yl)-2-methylpropyl)urea], for which the negative logarithm of the Kd (pKd) in assay [1] was 6.60 to 7.00. The IC50 in assay [2] is less than 1000 nM.

Turning to `Cc1c([C@@H](NC(=O)N[C@H]2CCCN(S(C)(=O)=O)C2)C(C)C)oc2ccc(F)cc12` (single isomer, unassigned) [Compound 20], the pKd in assay [1] is 6.60 to 7.00. For the same compound, the concentration for half-maximal inhibition (IC50) in assay [2] fell in the range of 1000 to 5000 nM.

Take `Cc1c([C@@H](NC(=O)Nc2cnc(C(=O)N(C)C)nc2)C(C)C)oc2ccc(F)cc12` [Compound 59, (S)-5-(3-(1-(5-fluoro-3-methylbenzofuran-2-yl)-2-methylpropyl)ureido)-N,N-dimethylpyrimidine-2-carboxamide]: in assay [1], the pKd is 6.60 to 7.00. Besides, the concentration for half-maximal inhibition (IC50) in assay [2] was less than 1000 nM.

For the compound `Cc1c([C@@H](NC(=O)Nc2ccc3c(c2)CNC3=O)C(C)C)oc2ccc(F)cc12` [Compound 33, (S)-1-(1-(5-fluoro-3-methylbenzofuran-2-yl)-2-methylpropyl)-3-(1-oxoisoindolin-5-yl)urea], the pKd in assay [1] is greater than 7.00. Also, the IC50 in assay [2] was less than 1000 nM.

As for `Cc1c([C@@H](NC(=O)Nc2ccc(C(N)=O)nc2)C(C)C)oc2ccc(F)cc12` [Compound 41, (S)-5-(3-(1-(5-fluoro-3-methylbenzofuran-2-yl)-2-methylpropyl)ureido)picolinamide], the negative-log Kd (pKd) in assay [1] is greater than 7.00. Besides, the 50% inhibitory concentration (IC50) in assay [2] is less than 1000 nM.

As to `Cc1c([C@@H](NC(=O)Nc2ccc(S(N)(=O)=O)nc2)C2CC2)oc2ccc(F)cc12` [Compound 48, (S)-5-(3-(cyclopropyl(5-fluoro-3-methylbenzofuran-2-yl)methyl)ureido)pyridine-2-sulfonamide], the negative logarithm of the Kd (pKd) in assay [1] is 6.60 to 7.00. Also, the IC50 in assay [2] lay within 1000 to 5000 nM.

As to `Cc1c([C@@H](NC(=O)Nc2ccc(C(=O)N3CC(F)C3)nc2)C(C)C)oc2ccc(F)cc12` [Compound 64, (S)-1-(1-(5-fluoro-3-methylbenzofuran-2-yl)-2-methylpropyl)-3-(6-(3-fluoroazetidine-1-carbonyl)pyridin-3-yl)urea], the pKd in assay [1] was greater than 7.00. The half-inhibitory concentration (IC50) in assay [2] is 1000 to 5000 nM.

`CNC(=O)c1cncc(NC(=O)N[C@H](c2oc3ccc(F)cc3c2C)C(C)C)c1` [Compound 60, (S)-5-(3-(1-(5-fluoro-3-methylbenzofuran-2-yl)-2-methylpropyl)ureido)-N-methylnicotinamide]: in assay [1], the negative logarithm of the Kd (pKd) was 6.60 to 7.00. The IC50 in assay [2] lay in the range of 1000 to 5000 nM.

As for `Cc1c([C@@H](NC(=O)Nc2ccc3c(c2)C(=O)NC3)C(C)C)oc2ccc(F)cc12` [Compound 34, (S)-1-(1-(5-fluoro-3-methylbenzofuran-2-yl)-2-methylpropyl)-3-(3-oxoisoindolin-5-yl)urea], in assay [1], the pKd was greater than 7.00. Besides, the concentration for half-maximal inhibition (IC50) in assay [2] lay in the range of 1000 to 5000 nM.

For `Cc1c(C(NC(=O)Nc2cnc(N)nc2)C(F)(F)F)oc2ccc(F)cc12` (racemic) [Compound 68, 1-(2-aminopyrimidin-5-yl)-3-(2,2,2-trifluoro-1-(5-fluoro-3-methylbenzofuran-2-yl)ethyl)urea], the pKd in assay [1] was greater than 7.00. Further, in assay [2], the IC50 is less than 1000 nM.

With `Cc1c([C@@H](NC(=O)Nc2cncc(C(N)=O)c2)C2CC2)oc2ccc(F)cc12` [Compound 45, (S)-5-(3-(cyclopropyl(5-fluoro-3-methylbenzofuran-2-yl)methyl)ureido)nicotinamide], the pKd in assay [1] is 6.60 to 7.00. Moreover, in assay [2], the half-maximal inhibitory concentration (IC50) lay in the range of 1000 to 5000 nM.

As for `Cc1c([C@@H](NC(=O)Nc2cccc(S(C)(=N)=O)c2)C(C)C)oc2ccc(F)cc12` (single isomer, unassigned) [Compound 29], the pKd in assay [1] is 6.60 to 7.00. In assay [2], the IC50 was 1000 to 5000 nM.

As to `CCS(=O)(=O)c1ccc(NC(=O)N[C@H](C)c2oc3ccc(F)cc3c2C)cc1` [Compound 13, (R)-1-(4-(ethylsulfonyl)phenyl)-3-(1-(5-fluoro-3-methylbenzofuran-2-yl)ethyl)urea], the pKd in assay [1] was no more than 6.30. Further, the half-maximal inhibitory concentration (IC50) in assay [2] is greater than 5000 nM.

Take `Cc1c([C@@H](NC(=O)Nc2cncc(C(=O)N3CCC3)c2)C(C)C)oc2ccc(F)cc12` [Compound 63, (S)-1-(5-(azetidine-1-carbonyl)pyridin-3-yl)-3-(1-(5-fluoro-3-methylbenzofuran-2-yl)-2-methylpropyl)urea]: the pKd in assay [1] is greater than 7.00. Also, the concentration for half-maximal inhibition (IC50) in assay [2] is less than 1000 nM.

On to `Cc1c(C(NC(=O)Nc2cnc(N3CCC3)nc2)C(F)(F)F)oc2ccc(F)cc12` (single isomer, unassigned) [Compound 69, 1-(2-(azetidin-1-yl)pyrimidin-5-yl)-3-(2,2,2-trifluoro-1-(5-fluoro-3-methylbenzofuran-2-yl)ethyl)urea], for which the negative-log Kd (pKd) in assay [1] was greater than 7.00. In assay [2], the concentration for half-maximal inhibition (IC50) was less than 1000 nM.

As for `Cc1c([C@@H](NC(=O)Nc2cccnc2)C2CC2)oc2ccc(F)cc12` [Compound 37, (S)-1-(cyclopropyl(5-fluoro-3-methylbenzofuran-2-yl)methyl)-3-(pyridin-3-yl)urea], the pKd in assay [1] was no more than 6.30. The IC50 in assay [2] is greater than 5000 nM.

With `Cc1c([C@@H](NC(=O)N[C@H]2CCC[C@H](C(N)=O)C2)C(C)C)oc2ccc(F)cc12` [Compound 31, (1S,3S)-3-(3-((S)-1-(5-fluoro-3-methylbenzofuran-2-yl)-2-methylpropyl)ureido) cyclohexane-1-carboxamide], the negative-log Kd (pKd) in assay [1] was 6.30 to 6.60. In assay [2], the IC50 is greater than 5000 nM.

Turning to `Cc1c([C@@H](NC(=O)Nc2ccc(N3CCC3)nc2)C(C)C)oc2ccc(F)cc12` [Compound 71, (S)-1-(6-(azetidin-1-yl)pyridin-3-yl)-3-(1-(5-fluoro-3-methylbenzofuran-2-yl)-2-methylpropyl) urea], the pKd in assay [1] is greater than 7.00. In assay [2], the IC50 is less than 1000 nM.

For `COC(=O)N1CCC(NC(=O)NC(c2oc3ccc(F)cc3c2C)C(C)C)CC1` (single isomer, unassigned) [Compound 36], the pKd in assay [1] was no more than 6.30. Also, in assay [2], the concentration for half-maximal inhibition (IC50) is greater than 5000 nM.

By pIC50 is commonly meant the IC50 on a negative log10 scale, so that one unit is a factor of ten. As for `Cc1c([C@@H](NC(=O)Nc2cnc(N)nc2)C(C)C)oc2ccc(F)cc12` [Compound 66, (S)-1-(2-aminopyrimidin-5-yl)-3-(1-(5-fluoro-3-methylbenzofuran-2-yl)-2-methylpropyl)urea], the negative logarithm of the Kd (pKd) in assay [1] was greater than 7.00. Moreover, in assay [2] (read-out: T47D pAKT IC50, T47D.1 cells, pAKT (S473) HTRF, 1 hour), the negative logarithm of the IC50 (pIC50) was 5.30 to 6.00.

As to `Cc1c([C@@H](NC(=O)Nc2cnc(N3CCC3)nc2)C(C)C)oc2ccc(F)cc12` [Compound 74], the pKd in assay [1] was greater than 7.00. For the same compound, the IC50 in assay [2] is less than 1000 nM.

Turning to `Cc1c([C@@H](NC(=O)N[C@@H]2CCC[C@@H](C(N)=O)C2)C(C)C)oc2ccc(F)cc12` (single isomer, unassigned) [Compound 32], the pKd in assay [1] was 6.60 to 7.00. In addition, the IC50 in assay [2] is greater than 5000 nM.

On to `Cc1c([C@@H](NC(=O)Nc2cn[nH]c2)C(C)C)oc2ccc(F)cc12` [Compound 47, (S)-1-(1-(5-fluoro-3-methylbenzofuran-2-yl)-2-methylpropyl)-3-(1H-pyrazol-4-yl)urea], for which the pKd in assay [1] is 6.60 to 7.00. For the same compound, the half-inhibitory concentration (IC50) in assay [2] lay within 1000 to 5000 nM.

Consider `Cc1c([C@@H](NC(=O)Nc2cccc(C(N)=O)c2)C(C)C)oc2c(F)cc(F)cc12` [Compound 52, (S)-3-(3-(1-(5,7-difluoro-3-methylbenzofuran-2-yl)-2-methylpropyl)ureido)benzamide], for which the negative-log Kd (pKd) in assay [1] is greater than 7.00. For the same compound, the IC50 in assay [2] was less than 1000 nM.

Consider `Cc1c([C@@H](NC(=O)Nc2cnc(N)nc2)C(C)C)oc2c(F)cc(F)cc12` [Compound 75, (S)-1-(2-aminopyrimidin-5-yl)-3-(1-(5,7-difluoro-3-methylbenzofuran-2-yl)-2-methylpropyl)urea], for which the negative-log Kd (pKd) in assay [1] was greater than 7.00. Further, the IC50 in assay [2] is less than 1000 nM.

With `CNC(=O)c1cccc(NC(=O)N[C@H](c2oc3ccc(F)cc3c2C)C(C)C)c1` [Compound 23, (S)-3-(3-(1-(5-fluoro-3-methylbenzofuran-2-yl)-2-methylpropyl)ureido)-N-methylbenzamide], in assay [1], the pKd was 6.30 to 6.60. Moreover, the IC50 in assay [2] lay in the range of 1000 to 5000 nM.

Consider `Cc1c([C@@H](NC(=O)Nc2cncc(C(=O)N(C)C)c2)C(C)C)oc2ccc(F)cc12` [Compound 56, (S)-5-(3-(1-(5-fluoro-3-methylbenzofuran-2-yl)-2-methylpropyl)ureido)-N,N-dimethylnicotinamide], for which, in assay [1], the negative-log Kd (pKd) was greater than 7.00. In addition, in assay [2], the IC50 is less than 1000 nM.

As for `Cc1c([C@@H](NC(=O)Nc2cccc(C(=O)N(C)C)c2)C(C)C)oc2ccc(F)cc12` [Compound 22, (S)-3-(3-(1-(5-fluoro-3-methylbenzofuran-2-yl)-2-methylpropyl)ureido)-N,N-dimethylbenzamide], in assay [1], the pKd was greater than 7.00. Besides, the IC50 in assay [2] was 1000 to 5000 nM.

Turning to `Cc1c([C@H](C)NC(=O)Nc2cccc(C(N)=O)c2)oc2ccc(F)cc12` [Compound 3, (S)-3-(3-(1-(5-fluoro-3-methylbenzofuran-2-yl)ethyl)ureido) benzamide], the negative logarithm of the Kd (pKd) in assay [1] was no more than 6.30. In assay [2], the IC50 is greater than 5000 nM.

In the case of `Cc1c([C@@H](NC(=O)Nc2cnc(N3CC(F)(F)C3)nc2)C(C)C)oc2ccc(F)cc12` [Compound 72, (S)-1-(2-(3,3-difluoroazetidin-1-yl)pyrimidin-5-yl)-3-(1-(5-fluoro-3-methylbenzofuran-2-yl)-2-methylpropyl)urea], in assay [1], the pKd was greater than 7.00. For the same compound, in assay [2], the half-inhibitory concentration (IC50) is less than 1000 nM.
